The test system of data set [1] is anesthetized normal rats. Kind of data set: In vivo measurement of salivation. Details: species or system rat. The following applies: anesthetized normal rats, dose-dependent between about 0.1 mg/kg and 1 mg/kg. As to the method:
Suitable doses of test compounds or drug substances were administered using standard techniques to Long Evans Hooded rats weighing 225 to 350 grams, or CD-1 mice weighing 30 to 50 grams, which had been anesthetized using 2-3.5%% of isoflurane in oxygen. The animals were placed slightly head-down on an inclined, heated ramp. Rectal temperature was monitored using a thermocouple and the temperature of the heating pad was adjusted manually to maintain normal body temperature. Saliva was collected from the mouth by absorption onto pre-weighed slips of filter paper. The filter paper was changed periodically and the amount of saliva was measured by weighing the filter paper slips

The target in data set [2] is T1, human muscarinic M3 receptors (Homo sapiens, UniProt P20309).
T1 construct: expressed in transfected cells; host or cells: A9L cells (gift from Professor W Messer)
T1 sequence (P20309 whole entry): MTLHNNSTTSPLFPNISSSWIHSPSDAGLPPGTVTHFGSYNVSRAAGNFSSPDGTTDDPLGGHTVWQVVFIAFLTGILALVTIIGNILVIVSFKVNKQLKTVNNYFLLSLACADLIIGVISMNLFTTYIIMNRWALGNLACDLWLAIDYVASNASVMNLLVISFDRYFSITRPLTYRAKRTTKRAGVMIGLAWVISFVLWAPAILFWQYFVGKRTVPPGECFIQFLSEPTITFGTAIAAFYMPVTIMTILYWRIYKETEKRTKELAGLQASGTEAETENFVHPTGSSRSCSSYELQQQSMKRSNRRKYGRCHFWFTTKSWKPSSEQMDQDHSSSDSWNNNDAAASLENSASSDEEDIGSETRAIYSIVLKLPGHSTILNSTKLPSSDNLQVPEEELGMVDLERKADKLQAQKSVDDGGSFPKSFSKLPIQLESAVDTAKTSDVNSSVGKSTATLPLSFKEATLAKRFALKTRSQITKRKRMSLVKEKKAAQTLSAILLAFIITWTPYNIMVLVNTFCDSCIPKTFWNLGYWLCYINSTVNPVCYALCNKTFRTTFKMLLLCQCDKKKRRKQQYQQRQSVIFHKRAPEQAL
Put plainly: Inositol phosphate production in huM3/A9L cells (IPOne TR-FRET). In kind it is cell-based. As to the method:
Muscarinic M1 and M3 agonist activity was evaluated by measuring the stimulation of inositol phosphate (IP) production in the presence of lithium chloride from A9L cells transfected with expression plasmids containing human muscarinic M1 and M3 receptors, respectively. The cell lines were a gift from Professor W Messer, and the methods were as described in Tejada F R et al. J. Med. Chem. 2006; 49: 7518-31 except that the assay was scaled down to run in 384 well plates, and IP was measured in the cell lysates using the non-isotopic IPOne TR-FRET assay (CIS-BIO, Inc).
Cells were grown to 90% confluence in 384 well hi-base plates (Greiner Bio-One), compounds were added at suitable concentrations in growth medium containing 10 mM LiCL, buffered with an extra 10 mM HEPES (pH7.4), and incubated for 60 minutes at 37° C. Cells were lysed and assayed for IP following the manufacturer's instructions.
The value for a full agonist is 100%, while partial agonists give values below 100%.

Data set [3] concerns the target T2, human FMO1 Supersomes (Homo sapiens, UniProt Q01740).
T2 construct: purchased BD Biosciences 456241
T2 sequence (Q01740 1-532): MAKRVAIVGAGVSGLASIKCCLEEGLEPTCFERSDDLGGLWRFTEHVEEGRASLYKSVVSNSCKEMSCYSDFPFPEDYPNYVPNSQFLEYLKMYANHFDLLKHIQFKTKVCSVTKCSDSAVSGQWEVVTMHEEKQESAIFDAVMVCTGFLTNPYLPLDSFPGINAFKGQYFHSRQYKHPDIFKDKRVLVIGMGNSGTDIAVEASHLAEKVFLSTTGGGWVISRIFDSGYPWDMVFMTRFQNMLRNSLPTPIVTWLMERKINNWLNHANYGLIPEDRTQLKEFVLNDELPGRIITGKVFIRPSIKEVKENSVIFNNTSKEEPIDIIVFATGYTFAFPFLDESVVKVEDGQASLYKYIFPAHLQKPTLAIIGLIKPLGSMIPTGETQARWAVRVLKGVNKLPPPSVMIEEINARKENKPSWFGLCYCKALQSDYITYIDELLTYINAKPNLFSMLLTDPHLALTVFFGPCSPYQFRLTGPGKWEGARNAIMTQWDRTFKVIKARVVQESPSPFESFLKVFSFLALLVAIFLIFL
Kind of data set: Metabolism by flavin monoxygenase 1 (FMO1) Supersomes. In kind it is in vitro ADME. As to the method:
[…] Aliquots were removed every 10 minutes, and 1% formic acid was added to halt the reaction. Samples were centrifuged, filtered through 0.2 micron spinfilter and the amount of each compound in the supernatants was quantitated using LC/MS/MS.

For the compound `Cc1noc(C2CCCNC2)n1` (racemic) [Compound 82, 3-Methyl-5-(piperidin-3-yl)-1,2,4-oxadiazole], the “PAMPA (? × 106)” value is given as 2.56 ? × 106 and the “rate of crossing the lipid layer in the PAMPA test” value is “much higher rate”. In data set [1], the salivation side effect result was “causes salivation”. In addition, the “huM3/A9L Smax” value in data set [2] (percentage of maximal stimulation by carbachol) amounted to 54%. For the same compound, in data set [2] (potency relative to carbachol), the “huM3/A9L ED50 relative to CCh” value was “+/− (potency 0.5-2x CCh)”. Further, the “extent of metabolism in FMO Supersomes” value in data set [3] is on record as “less than half metabolized”.

Source of the values: patent US20120046273A1, “COMPOUNDS AND COMPOSITIONS FOR COGNITION-ENHANCEMENT, METHODS OF MAKING, AND METHODS OF TREATING” (MITHRIDION, INC., priority 2009, published 2012).
